pIC50: −log10 of the molar value.
Biological target: angiotensin II AT1 receptor
Test: Assay A: Angiotensin II binding activity, rat uterine membrane preparation, 125I-AII displacement
Method: Assay A: Antiotensin II Binding Activity
Compounds of the invention were tested for ability to bind to the smooth muscle angiotensin II receptor using a rat uterine membrane preparation. […] Rat uterine membranes were prepared from fresh tissue. All procedures were carried out at 4° C. Uteri were stripped of fat and homogenized in phosphate-buffered saline at pH 7.4 containing 5 mM EDTA. The homogenate was centrifuged at 1500×g for 20 min., and the supernatant was recentrifuged at 100,000×g for 60 min. The pellet was resuspended in buffer consisting of 2 mM EDTA and 50 mM Tris-HCl (pH 7.5) to a final protein concentration of 4 mg/ml. […] The reaction was initiated by the addition of membrane protein and the mixture was incubated at 25° C. for 60 min. The incubation was terminated with ice-cold 50 mM Tris-HCl (pH 7.5) and the mixture was filtered to separate membrane-bound labelled peptide from the free ligand. The incubation tube and filter were washed with ice-cold buffer. Filters were assayed for radioactivity in a Micromedic gamma counter. Nonspecific binding was defined as binding in the presence of 10 μM of unlabelled AII. Specific binding was calculated as total binding minus nonspecific binding. […] Binding data were analyzed by a nonlinear least-squares curve fitting program.

SMILES | pIC50
C[C@]12CCC(=O)C=C1C1CC1[C@H]1[C@@H]3CC[C@@](O)(CCC(=O)O)[C@@]3(C)CC3O[C@]312 (some centres unmarked) [Compound 8] | 4.77
CCCCc1nc(C(F)(F)CCC)nn1Cc1ccc(-c2ccccc2-c2nnn[nH]2)cc1 [Compound 21] | 7.06
CCCc1nc(CCC)n(Cc2ccc(-c3ccccc3-c3nnn[nH]3)cc2)n1 [Compound 23] | 6.37
CCCCc1nc(CCC(C)C)n(Cc2ccc(-c3ccccc3-c3nnn[nH]3)cc2)n1 [Compound 27] | 6.74
CCCCc1nc(CCC(C)C)nn1Cc1ccc(-c2ccccc2-c2nnn[nH]2)cc1 [Compound 28] | 6.24
CCCCc1ncnn1Cc1ccc(-c2ccccc2C(=O)O)cc1 [Compound 29] | 6.80
CCCCc1nc(-c2ccccc2)nn1Cc1ccc(-c2ccccc2-c2nnn[nH]2)cc1 [Compound 32] | 7.80
CCCCc1nc(-c2ccccc2)n(Cc2ccc(-c3ccccc3-c3nnn[nH]3)cc2)n1 [Compound 33] | 6.20
CCCCc1nc(C(OC)OC)n(Cc2ccc(-c3ccccc3-c3nnn[nH]3)cc2)n1 [Compound 34] | 6.19
CCCCc1nc(CN)nn1Cc1ccc(-c2ccccc2-c2nnn[nH]2)cc1 [Compound 38] | 8.00
CCCCCCCCc1nc(CCCC)n(Cc2ccc(-c3ccccc3-c3nnn[nH]3)cc2)n1 [Compound 40] | 7.08
CCCCc1nc(C(=O)CCC)nn1Cc1ccc(-c2ccccc2-c2nnn[nH]2)cc1 [Compound 41] | 5.43
CCCCc1nc(C(=O)CCC)nn1Cc1ccc(-c2ccccc2-c2nnn[nH]2)cc1 [Compound 42] | 6.43
CCCCc1nc(C)nn1Cc1ccc(-c2ccccc2-c2nnn[nH]2)cc1 [Compound 43] | 7.72
CCCCc1nc(C)n(Cc2ccc(-c3ccccc3-c3nnn[nH]3)cc2)n1 [Compound 44] | 7.80
CCCCc1nc(CC(OCC)OCC)n(Cc2ccc(-c3ccccc3-c3nnn[nH]3)cc2)n1 [Compound 48] | 6.17
CCCCc1nc(Cc2ccccc2)nn1Cc1ccc(-c2ccccc2-c2nnn[nH]2)cc1 [Compound 55] | 7.10
CCCCc1nc(CCCO)nn1Cc1ccc(-c2ccccc2-c2nnn[nH]2)cc1 [Compound 56] | 8.30
CCCCc1nc(C(F)F)n(Cc2ccc(-c3ccccc3-c3nnn[nH]3)cc2)n1 [Compound 59] | 6.92
CCCCc1nc(C=O)nn1Cc1ccc(-c2ccccc2-c2nnn[nH]2)cc1 [Compound 60] | 5.66
CCCCc1nc(C(=O)Cc2ccccc2)nn1Cc1ccc(-c2ccccc2-c2nnn[nH]2)cc1 [Compound 61] | 6.96
CCCCc1nc(C23CC4CC(CC(C4)C2)C3)n(Cc2ccc(-c3ccccc3-c3nnn[nH]3)cc2)n1 [Compound 66] | 7.92
CCCCc1nc(CCCC2CCCCC2)n(Cc2ccc(-c3ccccc3-c3nnn[nH]3)cc2)n1 [Compound 68] | 8.07
CCCCc1nc(CCCC2CCCCC2)nn1Cc1ccc(-c2ccccc2-c2nnn[nH]2)cc1 [Compound 69] | 7.82
CCCCc1nc(CF)nn1Cc1ccc(-c2ccccc2-c2nnn[nH]2)cc1 [Compound 70] | 7.36

SMILES | pIC50
CCCCc1nc(CCC(=O)O)n(Cc2ccc(-c3ccccc3-c3nnn[nH]3)cc2)n1 [Compound 75] | 6.24
CCCCc1nn(CC(=O)c2ccccc2)c(=O)n1Cc1ccc(-c2ccccc2-c2nn[nH]n2)cc1 [Compound 93] | 6.32
CCCCc1nn(CC(O)c2ccccc2)c(=O)n1Cc1ccc(-c2ccccc2-c2nn[nH]n2)cc1 (centres unmarked) [Compound 94] | 5.24
CCCCc1nc2c(Cl)nnc(Cl)c2n1Cc1ccc(-c2ccccc2-c2nnn[nH]2)cc1 [Compound 121] | 7.34
CCCCc1nc2c(O)nnc(O)c2n1Cc1ccc(-c2ccccc2-c2nnn[nH]2)cc1 [Compound 122] | 7.34
CCCCc1nc2c(OCC)nnc(OCC)c2n1Cc1ccc(-c2ccccc2-c2nnn[nH]2)cc1 [Compound 123] | 7.30
CCCCn1nc(CCc2ccccc2)nc1Cc1ccc(-c2ccccc2-c2nnn[nH]2)cc1 [Compound 142] | 8.70
CCCCc1nc(Cc2ccc(-c3ccccc3-c3nnn[nH]3)nc2)n(CCCC)n1 [Compound 161] | 7.55
CCCCn1nc(CCc2ccccc2)nc1Cc1ccc(-c2ccccc2-c2nnn[nH]2)nc1 [Compound 162] | 6.42
CCCCn1nc(CCC)nc1Cc1ccc(-c2ccccc2-c2nnn[nH]2)nc1 [Compound 163] | 6.38
CCCCn1nc(CCc2cccs2)nc1Cc1ccc(-c2ccccc2-c2nnn[nH]2)nc1 [Compound 164] | 5.77
CCCn1nc(C(F)F)nc1Cc1ccc(-c2ccccc2-c2nnn[nH]2)nc1 [Compound 173] | 7.05
CCCCn1nc(C(=O)N(C)C(C)(C)C)nc1Cc1ccc(-c2ccccc2-c2nnn[nH]2)nc1 [Compound 182] | 7.23
CCCCn1nc(C(=O)NC)nc1Cc1ccc(-c2ccccc2-c2nnn[nH]2)nc1 [Compound 183] | 6.41
CCCCn1nc(C(OCC)OCC)nc1Cc1ccc(-c2ccccc2-c2nnn[nH]2)nc1 [Compound 187] | 6.11
CCCCn1nc(C(OCCC)OCCC)nc1Cc1ccc(-c2ccccc2-c2nnn[nH]2)nc1 [Compound 188] | 6.85
CCCCn1nc(C(OC(C)C)OC(C)C)nc1Cc1ccc(-c2ccccc2-c2nnn[nH]2)nc1 [Compound 189] | 7.54
CCCCn1nc(C2OCC(C)(C)CO2)nc1Cc1ccc(-c2ccccc2-c2nnn[nH]2)nc1 [Compound 192] | 6.85
CCCCc1nc(Cc2ccc(-c3ccccc3-c3nnn[nH]3)nc2)n(CC(C)(C)C)n1 [Compound 195] | 7.47
CCCCc1cn(CCCC)c(=O)n1Cc1ccc(-c2ccccc2-c2nnn[nH]2)nc1 [Compound 196] | 7.51
CCCc1cn(CCC)c(=O)n1Cc1ccc(-c2ccccc2-c2nnn[nH]2)nc1 [Compound 197] | 7.85
CCCCc1cn(CCC)c(=O)n1Cc1ccc(-c2ccccc2-c2nnn[nH]2)nc1 [Compound 207] | 7.00
CCCCc1cn(CC(C)(C)C)c(=O)n1Cc1ccc(-c2ccccc2-c2nnn[nH]2)nc1 [Compound 213] | 7.29
CCCCc1cn(CCC(C)(C)C)c(=O)n1Cc1ccc(-c2ccccc2-c2nnn[nH]2)nc1 [Compound 214] | 7.19
CCCCc1cn(CC(CC)CC)c(=O)n1Cc1ccc(-c2ccccc2-c2nnn[nH]2)nc1 [Compound 215] | 7.35

SMILES | pIC50
CCCCc1cn(C2CCCC2)c(=O)n1Cc1ccc(-c2ccccc2-c2nnn[nH]2)nc1 [Compound 218] | 8.05
CCCCc1cn(CC2CCCC2)c(=O)n1Cc1ccc(-c2ccccc2-c2nnn[nH]2)nc1 [Compound 219] | 7.85
CCCCc1cn(CCC2CCCC2)c(=O)n1Cc1ccc(-c2ccccc2-c2nnn[nH]2)nc1 [Compound 222] | 8.30
CCCCc1cn(C2C3CC4CC(C3)CC2C4)c(=O)n1Cc1ccc(-c2ccccc2-c2nnn[nH]2)nc1 (centres unmarked) [Compound 224] | 7.04
CCCCc1cn(C23CC4CC(CC(C4)C2)C3)c(=O)n1Cc1ccc(-c2ccccc2-c2nnn[nH]2)nc1 [Compound 225] | 6.80
CCCCc1cn(-c2ccccc2)c(=O)n1Cc1ccc(-c2ccccc2-c2nnn[nH]2)nc1 [Compound 226] | 7.03
CCCCc1cn(CCCC)c(=O)n1Cc1ccc(-c2ccncc2-c2nnn[nH]2)cc1 [Compound 237] | 8.44
CCCCc1cn(-c2ccccc2C(C)(C)C)c(=O)n1Cc1ccc(-c2ccccc2-c2nnn[nH]2)nc1 [Compound 240] | 6.92
CCCCc1cn(-c2c(C)cccc2Cl)c(=O)n1Cc1ccc(-c2ccccc2-c2nnn[nH]2)nc1 [Compound 242] | 6.96
CCCCc1cn(-c2c(C)cc(C)cc2C)c(=O)n1Cc1ccc(-c2ccccc2-c2nnn[nH]2)nc1 [Compound 243] | 6.60
CCCCc1cn(-c2c(CC)cccc2CC)c(=O)n1Cc1ccc(-c2ccccc2-c2nnn[nH]2)nc1 [Compound 245] | 7.01
CCCCc1nc(CCCC)n(Cc2ccc(-c3ccccc3C(=O)O)nc2)n1 [Compound 251] | 7.60
CCCCc1nc(CCCC)n(Cc2ccc(-c3ccccc3-c3nnn[nH]3)nc2)n1 [Compound 252] | 7.89
CCCCc1nc(CCCC)n(Cc2ccc(-c3cccnc3-c3nnn[nH]3)cc2)n1 [Compound 253] | 8.59
CCCCc1nc(CCCC)n(Cc2ccc(-c3ccncc3-c3nnn[nH]3)cc2)n1 [Compound 254] | 7.14
CCCCc1nc(C(F)(F)CCC)n(Cc2ccc(-c3ccccc3-c3nnn[nH]3)nc2)n1 [Compound 259] | 7.27
CCCCc1nc(CC(C)(C)C)nn1Cc1ccc(-c2ccccc2-c2nnn[nH]2)nc1 [Compound 260] | 6.66
CCCCc1nc(CC(C)(C)C)n(Cc2ccc(-c3ccccc3-c3nnn[nH]3)nc2)n1 [Compound 261] | 7.74
CCCCc1nc(CC(CC)CC)n(Cc2ccc(-c3ccccc3-c3nnn[nH]3)nc2)n1 [Compound 263] | 7.24
CCCCc1nc(CCc2ccccc2)nn1Cc1ccc(-c2ccccc2-c2nnn[nH]2)nc1 [Compound 264] | 7.96
CCCCc1nc(CCc2ccccc2)n(Cc2ccc(-c3ccccc3-c3nnn[nH]3)nc2)n1 [Compound 265] | 6.96
CCCCc1nc(C(=O)N(C)C(C)(C)C)nn1Cc1ccc(-c2ccccc2-c2nnn[nH]2)nc1 [Compound 266] | 6.54
CCCCc1nc(C(=O)NC)n(Cc2ccc(-c3ccccc3-c3nnn[nH]3)nc2)n1 [Compound 269] | 8.01
CCCCc1nc(-c2ccccc2)nn1Cc1ccc(-c2ccccc2-c2nnn[nH]2)nc1 [Compound 270] | 7.68

Reference: patent publication US20040102423A1, “Spironolactone and angiotensin II antagonist combination therapy for treatment of congestive heart failure” (G.D. Searle & Co., priority 1995, published 2004)
